The source of these data is patent publication US10836759B2, “Thiazole derivatives useful as mutant IDH1 inhibitors for treating cancer” (THE UNITED STATES OF AMERICA, AS REPRESENTED BY THE …, priority 2016, dated 2020).

The target in experiment [1] is IDH1 R132H (Homo sapiens, UniProt O75874, R132H). The experiment can be described thus: Enzymatic inhibition assay, mutant IDH1 R132H (NADPH depletion coupled to diaphorase/resazurin). Format: biochemical. As to conditions: IDH1 R132H enzyme, IC50 class. The procedure:
(§1) Assays were conducted in a 1536-well black solid-bottom plate with a final assay volume of 9 μL.
Specifically, for IDH1 R132H, 3 μL of enzyme (4 mM β-ME, 0.0005 mg/mL IDH1 R132H, 150 mM NaCl, 20 mM Tris pH 7.5, 10 mM MgCl2, 0.05% BSA) were added to the plate, followed by the addition of 23 nL of test compound in DMSO. The plate was lidded and incubated at room temperature for 30 minutes at which time 3 μL of substrate were added (0.016 mM NADPH, 2 mM α-KG, 150 mM NaCl, 20 mM Tris pH 7.5, 10 mM MgCl2, 0.05% BSA). This reaction was incubated at room-temperature for 60 minutes at which time the detection mix was added (0.06 mg/mL diaphorase, 0.036 mM resazurin, 150 mM NaCl, 20 mM Tris pH 7.5, 10 mM MgCl2, 0.05% BSA). […]
On the technique in general: Alamar Blue is a resazurin reagent that responds to reducing activity.

The target in experiment [2] is IDH1 R132C (Homo sapiens, UniProt O75874, R132C). The experiment can be described thus: Enzymatic inhibition assay, mutant IDH1 R132C (NADPH depletion coupled to diaphorase/resazurin). Format: biochemical. The settings on record: IDH1 R132C enzyme, IC50 class. On the procedure:
as §1
For IDH1 R132C, 3 μL of enzyme (0.00032 mg/mL IDH1 R132H, 10% glycerol, 50 mM potassium phosphate pH 6.5, 5 mM MgCl2, 0.03% BSA) were added to the plate, followed by the addition of 23 nL of test compound in DMSO. The plate was lidded and incubated at room temperature for 30 minutes at which time 3 μL of substrate were added (0.012 mM NADPH, 0.6 mM α-KG, 10% glycerol, 50 mM potassium phosphate pH 6.5, 5 mM MgCl2, 0.03% BSA). […]

Each structure is given as a SMILES string. Some results are limits rather than exact numbers.

IDH1 R132C, sequence (O75874 whole entry R132C): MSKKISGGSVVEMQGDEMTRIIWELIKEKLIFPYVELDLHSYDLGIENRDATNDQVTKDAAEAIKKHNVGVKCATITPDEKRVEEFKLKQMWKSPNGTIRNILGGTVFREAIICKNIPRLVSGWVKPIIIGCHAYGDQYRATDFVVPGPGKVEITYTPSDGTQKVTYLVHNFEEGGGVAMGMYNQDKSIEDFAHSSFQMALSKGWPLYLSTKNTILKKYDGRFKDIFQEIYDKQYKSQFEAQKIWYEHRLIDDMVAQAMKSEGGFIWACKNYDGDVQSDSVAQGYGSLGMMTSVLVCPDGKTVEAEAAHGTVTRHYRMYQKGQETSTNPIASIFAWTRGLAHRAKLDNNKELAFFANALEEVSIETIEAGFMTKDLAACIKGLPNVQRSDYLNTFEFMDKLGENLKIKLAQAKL
IDH1 R132H, sequence (O75874 whole entry R132H): as the sequence (O75874 whole entry R132C) above, with C132H counted along it

The term IC50 denotes the concentration needed to halve the response being measured. Low readings indicate higher potency, high ones lower potency. Take `CCc1cccc(CC)c1-n1c(C=C(C)C)c(C(=O)N2CCNC[C@H]2C)cc(-c2nc(-c3ccc(Cl)cc3)cs2)c1=O` [Compound 123]: the IC50 in experiment [1] and in experiment [2] was < 0.3 µM throughout.
As for `CCc1cccc(CC)c1-n1c(C=C(C)C)c(C(=O)N2CCNC[C@@H]2C)cc(-c2nc(-c3ccc(Cl)cc3)cs2)c1=O` [Compound 124], the IC50 in experiment [1] and in experiment [2] was < 0.3 µM in each case.
In the case of `CCOc1ccc(Cl)cc1-n1c(C=C(C)C)c(C(=O)N2C[C@H]3CC[C@@H](C2)N3)cc(-c2nc(-c3ccc(C(F)F)cc3)cs2)c1=O` [Compound 125], the IC50 in experiment [1] and in experiment [2] was < 0.3 µM each time.
`CCOc1ccc(Cl)c(-n2c(C=C(C)C)c(C(=O)N3C[C@H]4CC[C@@H](C3)N4)cc(-c3nc(-c4ccc(Cl)cc4)cs3)c2=O)c1` [Compound 126]: the IC50 in experiment [1] and in experiment [2] was < 0.3 µM each time.
Regarding `CCOc1ccc(Cl)c(-n2c(C=C(C)C)c(C(=O)N3C[C@H]4CC[C@@H](C3)N4)cc(-c3nc(-c4ccc(C(F)(F)F)cc4)cs3)c2=O)c1` [Compound 127], the concentration for half-maximal inhibition (IC50) in experiment [1] and in experiment [2] was < 0.3 µM in each case.
With `CCOc1ccc(Cl)cc1-n1c(C=C(C)C)c(C(=O)N2CCNC[C@@H]2C)cc(-c2nc(-c3ccc(C(F)(F)F)cc3)cs2)c1=O` [Compound 128], the values for the 50% inhibitory concentration (IC50) in experiment [1] and in experiment [2] were < 0.3 µM and 0.3 to 1 µM, respectively.
On the same counts, the results for `CCOc1ccc(Cl)cc1-n1c(C=C(C)C)c(C(=O)N2CCNC[C@H]2C)cc(-c2nc(-c3ccc(C(F)(F)F)cc3)cs2)c1=O` [Compound 129] are < 0.3 µM and < 0.3 µM.
On the same counts, the results for `CCOc1ccc(Cl)c(-n2c(C=C(C)C)c(C(=O)N3C[C@H]4CC[C@@H](C3)N4)cc(-c3nc(-c4ccc(C(F)F)cc4)cs3)c2=O)c1` [Compound 130] are < 0.3 µM and < 0.3 µM.
On the same counts, the results for `CCc1cccc(CC)c1-n1c(C=C(C)C)c(C(=O)N2CCNC[C@H]2C)cc(-c2nc(-c3ccc(C(F)F)cc3)cs2)c1=O` [Compound 131] are < 0.3 µM and < 0.3 µM.
Consider `CCc1cccc(CC)c1-n1c(C=C(C)C)c(C(=O)N2CCNC[C@@H]2C)cc(-c2nc(-c3ccc(C(F)F)cc3)cs2)c1=O` [Compound 132], for which the 50% inhibitory concentration (IC50) in experiment [1] and in experiment [2] was < 0.3 µM each time.
With `CCc1ccc(Cl)cc1-n1c(C=C(C)C)c(C(=O)N2CC3CCC(C2)N3)cc(-c2nc(-c3ccc(Cl)cc3)cs2)c1=O` [Compound 133], the IC50 in experiment [1] and in experiment [2] was < 0.3 µM each time.
Take `CCc1ccc(N(C)C)cc1-n1c(C=C(C)C)c(C(=O)N2CC3CCC(C2)N3)cc(-c2nc(-c3ccc(Cl)cc3)cs2)c1=O` [Compound 134]: the half-inhibitory concentration (IC50) in experiment [1] and in experiment [2] was < 0.3 µM each time.
On to `CCOc1ccc(C#N)cc1-n1c(C=C(C)C)c(C(=O)N2CC3CCC(C2)N3)cc(-c2nc(-c3ccc(Cl)cc3)cs2)c1=O` [Compound 135], for which the IC50 in experiment [1] and in experiment [2] was < 0.3 µM each time.
As to `CCOc1ccc(C#N)cc1-n1c(C=C(C)C)c(C(=O)N2CCNCC2)cc(-c2nc(-c3ccc(Cl)cc3)cs2)c1=O` [Compound 136], the IC50 in experiment [1] and in experiment [2] was < 0.3 µM in each case.
As to `CCOc1ccc(Cl)c(-n2c(C=C(C)C)c(C(=O)N3CCNCC3)cc(-c3nc(-c4ccc(OC)nc4)cs3)c2=O)c1` [Compound 137], the IC50 in experiment [1] and in experiment [2] was < 0.3 µM each time.
As for `CCOc1ccc(Cl)c(-n2c(C=C(C)C)c(C(=O)N3CC4CCC(C3)N4)cc(-c3nc(-c4ccc(OC)nc4)cs3)c2=O)c1` [Compound 138], the IC50 in experiment [1] and in experiment [2] was < 0.3 µM throughout.
Take `CCOc1ccc(N(CC)CC)cc1-n1c(C=C(C)C)c(C(=O)N2CCNCC2)cc(-c2nc(-c3ccc(Cl)cc3)cs2)c1=O` [Compound 145]: the concentration for half-maximal inhibition (IC50) in experiment [1] and in experiment [2] was < 0.3 µM throughout.
As to `CCOc1ccc(N(CC)CC)cc1-n1c(C=C(C)C)c(C(=O)N2C[C@H]3CC[C@@H](C2)N3)cc(-c2nc(-c3ccc(Cl)cc3)cs2)c1=O` [Compound 146], the concentration for half-maximal inhibition (IC50) in experiment [1] is < 0.3 µM; in experiment [2], 0.3 to 1 µM.
`CC(C)=Cc1c(C(=O)N2CCNCC2)cc(-c2nc(-c3ccc(Cl)cc3)cs2)c(=O)n1-c1cc(N(C)C)ccc1Cl` [Compound 147]: the IC50 in experiment [1] and in experiment [2] was < 0.3 µM throughout.
As to `CNc1ccc(Cl)c(-n2c(C=C(C)C)c(C(=O)N3CCNCC3)cc(-c3nc(-c4ccc(Cl)cc4)cs3)c2=O)c1` [Compound 148], the IC50 in experiment [1] and in experiment [2] was < 0.3 µM each time.
On to `CNc1ccc(Cl)c(-n2c(C=C(C)C)c(C(=O)N3C[C@H]4CC[C@@H](C3)N4)cc(-c3nc(-c4ccc(Cl)cc4)cs3)c2=O)c1` [Compound 149], for which the 50% inhibitory concentration (IC50) in experiment [1] and in experiment [2] was < 0.3 µM throughout.
Regarding `CC(C)=Cc1c(C(=O)N2C[C@H]3CC[C@@H](C2)N3)cc(-c2nc(-c3ccc(Cl)cc3)cs2)c(=O)n1-c1cc(N(C)C)ccc1Cl` [Compound 150], the half-maximal inhibitory concentration (IC50) in experiment [1] is 0.3 to 1 µM; in experiment [2] it was < 0.3 µM.
